For three compounds, IC50 results are on record in paper PMC9218960 (ACS infectious diseases, 2020).

Where a chain is given by its changes, count along the chain named.

What all share (assay): [3H]uridine uptake inhibition by purines in PfENT1-SNP-expressing yeast
What all share (type): cell-based

One assay concerns the target T1, PfENT1 L197F (Plasmodium falciparum, UniProt Q8IDM6, L197F).
T1 sequence (Q8IDM6 1-422 L197F): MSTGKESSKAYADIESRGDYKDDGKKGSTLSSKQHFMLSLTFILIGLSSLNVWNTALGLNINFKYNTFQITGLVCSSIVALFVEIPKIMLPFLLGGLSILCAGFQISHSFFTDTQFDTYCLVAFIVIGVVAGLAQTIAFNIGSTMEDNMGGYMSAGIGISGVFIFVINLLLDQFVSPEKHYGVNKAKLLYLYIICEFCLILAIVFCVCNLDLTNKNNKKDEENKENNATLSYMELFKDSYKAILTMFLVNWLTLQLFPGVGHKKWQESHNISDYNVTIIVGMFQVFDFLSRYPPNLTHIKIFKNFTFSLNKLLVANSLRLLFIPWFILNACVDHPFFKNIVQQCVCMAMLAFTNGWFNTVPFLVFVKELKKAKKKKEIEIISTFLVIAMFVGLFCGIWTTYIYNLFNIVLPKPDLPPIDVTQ

The next assay has as its target T2, PfENT1 V129I/L133F (Plasmodium falciparum, UniProt Q8IDM6, L133F/V129I).
T2 sequence (Q8IDM6 1-422 V129I/L133F): T1 sequence (Q8IDM6 1-422 L197F) with V129I, L133F, F197L

Another assay concerns the target T3, PfENT1 S317T (Plasmodium falciparum, UniProt Q8IDM6, S317T).
T3 sequence (Q8IDM6 1-422 S317T): T1 sequence (Q8IDM6 1-422 L197F) with F197L, S317T

Another assay has as its target T4, PfENT1 I418M (Plasmodium falciparum, UniProt Q8IDM6, I418M).
T4 sequence (Q8IDM6 1-422 I418M): T1 sequence (Q8IDM6 1-422 L197F) with F197L, I418M

Another assay addresses T5, PfENT1 F92I (Plasmodium falciparum, UniProt Q8IDM6, F92I).
T5 sequence (Q8IDM6 1-422 F92I): T1 sequence (Q8IDM6 1-422 L197F) with F92I, F197L

The target of a further assay is T6, PfENT1 F36S (Plasmodium falciparum, UniProt Q8IDM6, F36S).
T6 sequence (Q8IDM6 1-422 F36S): T1 sequence (Q8IDM6 1-422 L197F) with F36S, F197L

With `OC[C@H]1O[C@@H](n2cnc3c(O)ncnc32)[C@H](O)[C@@H]1O` [Inosine, inosine], the concentration for half-maximal inhibition (IC50) – broadly, the concentration at which inhibition is half-maximal – on PfENT1 L197F worked out at 37 ± 12 µM; against PfENT1 V129I/L133F, 20 ± 7 µM; against PfENT1 S317T, 28 ± 2 µM; at PfENT1 I418M, 12 ± 2 µM; at PfENT1 F92I it was 51 ± 14 µM; against PfENT1 F36S, 24 ± 7 µM.
With `Nc1ncnc2nc[nH]c12` [Adenine, adenine], the half-inhibitory concentration (IC50) against PfENT1 L197F worked out at 46 ± 5 µM; at PfENT1 V129I/L133F, 930 ± 285 µM; against PfENT1 S317T, 205 ± 49 µM; on PfENT1 I418M, 221 ± 36 µM; on PfENT1 F92I it was 176 ± 35 µM; against PfENT1 F36S, 292 ± 21 µM.
On to `O=c1[nH]cnc2nc[nH]c12` [Hypoxanthine, hypoxanthine], for which the 50% inhibitory concentration (IC50) on PfENT1 L197F came out at 282 ± 8 µM; at PfENT1 V129I/L133F it was 360 ± 66 µM; at PfENT1 S317T, 175 ± 31 µM; on PfENT1 I418M, 145 ± 7 µM; against PfENT1 F92I, 207 ± 34 µM; against PfENT1 F36S, 171 ± 25 µM.
